In patent US9776991B2, “Thienomethylpiperazine derivatives as inhibitors of soluble epoxide hydrolase” (SANOFI, priority 2013, dated 2017):
Counter-ions that a name gives are not always drawn.

Target: recombinant sEH (soluble epoxide hydrolase, EPHX2) (Homo sapiens (Human), UniProt P34913)
Experiment: biochemical fluorometric sEH inhibition assay with Phome substrate
Settings: recombinant sEH purified from Sf9 insect cells, 2 nM sEH, 5 μM Phome, 60 minutes at 30° C.
Protocol: Compounds were tested in a biochemical screening assay using recombinant sEH purified from Sf9 insect cells and an artificial substrate, (3-phenyl-oxiranyl)-acetic acid cyano-(6-methoxy-naphtalen-2-yl)-methyl ester, Phome. The biochemical assay was performed in analogy to a fluorometric described in the literature (P. D. Jones et al., Anal. Biochem. 2005, 343, 66-75). The assay principle bases on the sEH-catalyzed hydrolysis of an artificial α-cyano-ester substrate. O-deacetylation liberates a cyanohydrin intermediate that rapidly decomposes to the highly fluorescent 6-methoxy-2-naphtaldehyde. To discriminate sample autofluorescence, the assay was carried out as a kinetic measurement with two time points. The first measurement is performed immediately before addition of the substrate and the […] measurement is done after completion of the assay. The assay format is either in 96- or in 384-well format.
Details of the assay using a 96-well plate format are described below. 40 μl recombinant sEH enzyme and 5 μl test compound are pre-incubated for 15 minutes at 30° C. Following pre-incubation, the reaction is started by addition of 5 μl Phome. The assay mixture containing 2 nM final sEH concentration, test compound ranging in a concentration from 0.0001-10 μM and 5 μM Phome is incubated for 60 minutes at 30° C.
Fluorescence is measured with any suitable detector for instance a TECAN Safire or Tecan Ultra at […]. % inhibition of recombinant sEH activity is used for calculation of corresponding IC50 values as illustrated and described in the examples.
The NCBI gene bank reference sequence with the accession number NM_001979 for EPHX2/sEH was applied for recombinant protein production:
The following commercially available materials have been used: • Incubation reagent: 25 mM Hepes (Sigma-Aldrich, Cat. No H-3375), 0.01% bovine albumin (Sigma-Aldrich Cat. No PA9205) • Substrate: 3-Phenyl-oxiranyl)-acetic acid cyano-(6-methoxy-naphtalen-2-yl)-methyl ester, Phome (Biozol Cat. No 10003134) • Microtiter plates: 96-well plates (Greiner Cat. No 655180; Costar Cat. No 3915)

Chain of recombinant sEH (soluble epoxide hydrolase, EPHX2) (P34913 whole entry): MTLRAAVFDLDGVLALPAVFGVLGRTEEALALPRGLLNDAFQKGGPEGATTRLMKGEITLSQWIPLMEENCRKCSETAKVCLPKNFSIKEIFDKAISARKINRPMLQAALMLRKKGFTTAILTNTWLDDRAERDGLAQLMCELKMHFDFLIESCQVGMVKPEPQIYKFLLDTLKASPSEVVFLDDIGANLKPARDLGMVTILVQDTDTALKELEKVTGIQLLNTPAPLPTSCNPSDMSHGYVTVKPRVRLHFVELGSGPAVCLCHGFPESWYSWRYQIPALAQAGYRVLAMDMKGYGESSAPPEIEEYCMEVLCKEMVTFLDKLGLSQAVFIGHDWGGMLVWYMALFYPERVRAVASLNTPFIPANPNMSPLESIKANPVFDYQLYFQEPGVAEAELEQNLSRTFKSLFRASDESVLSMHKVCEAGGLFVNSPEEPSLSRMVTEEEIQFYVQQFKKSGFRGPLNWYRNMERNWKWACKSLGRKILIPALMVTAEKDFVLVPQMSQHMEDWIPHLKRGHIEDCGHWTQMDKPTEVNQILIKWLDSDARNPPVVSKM

SMILES | IC50 | IC50 (trifluoroacetate)
C[C@@H](O)C(=O)N1CCN(Cc2ccc(C(=O)N(Cc3ccccc3)OC(F)(F)F)s2)CC1 [Example 1] | 0.122 nM | –
Cc1noc(C)c1C(=O)N1CCN(Cc2ccc(C(=O)NCc3ccc(Cl)cc3Cl)s2)CC1 [Example 2] | 0.502 nM | –
O=C(NCc1ccccc1C(F)(F)F)c1ccc(CN2CCN(C(=O)Cc3ccccc3Cl)CC2)s1 [Example 3] | 0.407 nM | –
O=C(NCc1ccccc1C(F)(F)F)c1ccc(CN2CCN(C(=O)c3cccnc3)CC2)s1 [Example 4] | 0.168 nM | –
CC(C)CCNC(=O)c1ccc(CN2CCN(C(=O)[C@@H]3C[C@H]3c3ccccc3)CC2)s1 [Example 5] | 0.432 nM | –
O=C(NCc1ccccc1C(F)(F)F)c1ccc(CN2CCN(C(=O)C3Cc4ccccc43)CC2)s1 (stereo not shown) [Example 6] | 0.528 nM | –
COc1ncccc1C(=O)N1CCN(Cc2ccc(C(=O)NCc3ccc(Cl)cc3Cl)s2)CC1 [Example 7] | 0.524 nM | –
O=C(NCc1ccc(Cl)cc1Cl)c1ccc(CN2CCN(C(=O)c3cnn4ccccc34)CC2)s1 [Example 8] | 0.512 nM | –
COc1ccc(CNC(=O)c2ccc(CN3CCN(C(=O)c4c(C)cc(=O)oc4C)CC3)s2)c(C(F)(F)F)c1 [Example 9] | 3.06 nM | –
Cc1cc(=O)oc(C)c1C(=O)N1CCN(Cc2ccc(C(=O)NCCC(C)(C)C)s2)CC1 [Example 10] | 2.94 nM | –
Cc1cc(=O)oc(C)c1C(=O)N1CCN(Cc2ccc(C(=O)NCCCn3nc(C(F)(F)F)cc3C)s2)CC1 [Example 11] | 2.95 nM | –
Cc1c(C(=O)N2CCN(Cc3ccc(C(=O)NCCC(C)C)s3)CC2)oc2ccc(Br)cc12 [Example 12] | 25.4 nM | –
CC(C)CCNC(=O)c1ccc(CN2CCN(C(=O)c3ccnn3C(F)F)CC2)s1 [Example 13] | 2.98 nM | –
CNC(=O)c1cccnc1N1CCN(Cc2ccc(C(=O)NCc3ccc(Cl)cc3Cl)s2)CC1 [Example 14] | 2.93 nM | –
O=C(NCc1ccccc1C(F)(F)F)c1ccc(CN2CCN(C(=O)c3ccc4nccn4c3)CC2)s1 [Example 15] | 0.604 nM | –
O=C(NCc1ccccc1C(F)(F)F)c1ccc(CN2CCN(C(=O)c3ccccn3)CC2)s1 [Example 16] | 0.534 nM | –
O=C(NCc1ccccc1C(F)(F)F)c1ccc(CN2CCN(C(=O)COc3ccccc3)CC2)s1 [Example 17] | 0.699 nM | –
O=C(NCc1ccccc1C(F)(F)F)c1ccc(CN2CCN(C(=O)c3cscc3Br)CC2)s1 [Example 18] | 0.678 nM | –
O=C(NCc1ccccc1OC(F)(F)F)c1ccc(CN2CCN(C(=O)N3CCCC3)CC2)s1 [Example 19] | 0.695 nM | –
CC(O)C(=O)N1CCN(Cc2ccc(C(=O)NCc3ccc(Cl)cc3Cl)s2)CC1 (stereo not shown) [Example 20] | 0.539 nM | –
COCc1cc(O)nc(N2CCN(Cc3ccc(C(=O)NCc4ccc(Cl)cc4Cl)s3)CC2)n1 [Example 21] | 2.9 nM | –

SMILES | IC50 | IC50 (trifluoroacetate)
COc1ccc(CNC(=O)c2ccc(CN3CCN(c4ccc(O)nn4)CC3)s2)c(OC(F)(F)F)c1 [Example 22] | 2.8 nM | –
Cc1cc(=O)oc(C)c1C(=O)N1CCN(Cc2ccc(C(=O)NCC3CCc4ccccc43)s2)CC1 (stereo not shown) [Example 23] | 2.75 nM | –
Cn1nc(C(C)(C)C)cc1C(=O)N1CCN(Cc2ccc(C(=O)NCc3ccccc3C(F)(F)F)s2)CC1 [Example 25] | 2.76 nM | –
Cc1cnc(C)c(N2CCN(Cc3ccc(C(=O)NCc4ccccc4OC(F)(F)F)s3)CC2)n1 [Example 26] | 2.75 nM | –
O=C(NCc1ccc(Cl)cc1Cl)c1ccc(CN2CCN(C3CCC3)CC2)s1 [Example 27] | 0.803 nM | –
Cc1cc(C(=O)NCCC(C)(C)C)sc1CN1CCN(C(=O)c2c(C)cc(=O)oc2C)CC1 [Example 28] | 0.803 nM | –
Cc1cc(C(=O)NCc2cccc3c2OCCO3)sc1CN1CCN(C(=O)c2c(C)cc(=O)oc2C)CC1 [Example 29] | 0.803 nM | –
COc1cc(CNC(=O)c2ccc(CN3CCN(C(=O)[C@H](O)C(C)C)CC3)s2)ccn1 [Example 30, 5-[4-((R)-2-Hydroxy-3-methyl-butyryl)-piperazin-1-ylmethyl]-thiophene-2-carboxylic acid (2-methoxy-pyridin-4-ylmethyl)-amide] | 0.803 nM | –
O=C(NCc1ccccc1C(F)(F)F)c1ccc(CN2CCN(C(=O)Cc3cccc(C(F)(F)F)c3)CC2)s1 [Example 31] | 0.758 nM | –
COc1ccc(CNC(=O)c2ccc(CN3CCN(C(=O)C(C)O)CC3)s2)c(OC(F)(F)F)c1 (stereo not shown) [Example 32] | 0.756 nM | –
Cc1cc(=O)oc(C)c1C(=O)N1CCN(Cc2ccc(C(=O)NCc3ccc(C(F)(F)F)cc3)s2)CC1 [Example 33] | 0.906 nM | –
COc1cc(CNC(=O)c2ccc(CN3CCN(C(=O)c4c(C)cc(=O)oc4C)CC3)s2)ccn1 [Example 34] | 0.906 nM | –
Cc1cc(=O)oc(C)c1C(=O)N1CCN(Cc2ccc(C(=O)NCc3ccccc3OC(F)(F)F)s2)CC1 [Example 35] | 0.916 nM | –
Cc1cc(=O)oc(C)c1C(=O)N1CCN(Cc2ccc(C(=O)NCc3ccccc3C(F)(F)F)s2)CC1 [Example 36] | 0.906 nM | –
O=C(NCc1ccccc1OC(F)(F)F)c1ccc(CN2CCN(C(=O)C3(O)CC3)CC2)s1 [Example 37] | 0.929 nM | –
O=C(NCc1ccccc1OC(F)(F)F)c1ccc(CN2CCN(C3CCCC3)C(=O)C2)s1 [Example 38] | 0.803 nM | –
Cc1cncc(N2CCN(Cc3ccc(C(=O)NCc4ccccc4OC(F)(F)F)s3)CC2)n1 [Example 39] | 2.75 nM | –
COc1cc(CNC(=O)c2ccc(CN3CCN(C(=O)C4CC(=O)OC4(C)C)CC3)s2)ccn1 (stereo not shown) [Example 40] | 2.75 nM | –
CN[C@H](C(=O)N1CCN(Cc2ccc(C(=O)NCc3ccccc3OC(F)(F)F)s2)CC1)[C@@H](C)O [Example 41] | 2.75 nM | –
O=C(NCc1ccc(Cl)cc1Cl)c1ccc(CN2CCN(C(=O)COc3ccccc3)CC2)s1 [Example 42] | 2.7 nM | –
O=C(NCc1ccc(Cl)cc1Cl)c1ccc(CN2CCN(C(=O)c3ccc(F)cc3Cl)CC2)s1 [Example 43] | 2.74 nM | –

SMILES | IC50 | IC50 (trifluoroacetate)
CN1CC(C(=O)N2CCN(Cc3ccc(C(=O)NCc4ccccc4OC(F)(F)F)s3)CC2)CC1=O (stereo not shown) [Example 44] | 2.72 nM | –
O=C(NCc1ccccc1C(F)(F)F)c1ccc(CN2CCN(C(=O)c3nccc4ccccc34)CC2)s1 [Example 45] | 2.67 nM | –
O=C(NCc1ccccc1OC(F)(F)F)c1ccc(CN2CCN(c3nccs3)C(=O)C2)s1 [Example 47] | 2.69 nM | –
NC(CF)C(=O)N1CCN(Cc2ccc(C(=O)NCc3ccc(Cl)cc3Cl)s2)CC1 (stereo not shown) [Example 48] | 2.69 nM | –
O=C(NCc1ccccc1OC(F)(F)F)c1ccc(CN2CCN(C(=O)C3COCCN3)CC2)s1 (stereo not shown) [Example 49] | 2.68 nM | –
O=C(NCc1ccc(Cl)cc1Cl)c1ccc(CN2CCN(c3ccc(O)nn3)CC2)s1 [Example 50] | 2.67 nM | –
Cn1cccc1C(=O)N1CCN(Cc2ccc(C(=O)NCc3ccccc3C(F)(F)F)s2)CC1 [Example 51] | 0.994 nM | –
Cn1ncc(Br)c1C(=O)N1CCN(Cc2ccc(C(=O)NCc3ccccc3C(F)(F)F)s2)CC1 [Example 52] | 0.955 nM | –
CCOc1ccccc1C(=O)N1CCN(Cc2ccc(C(=O)NCc3ccccc3C(F)(F)F)s2)CC1 [Example 53] | 1.02 nM | –
CC(O)C(=O)N1CCN(Cc2ccc(C(=O)NCc3ccccc3OC(F)(F)F)s2)CC1 (stereo not shown) [Example 54, 5-[4-(2-Hydroxy-propionyl)-piperazin-1-ylmethyl]-thiophene-2-carboxylic acid 2-trifluoromethoxy-benzylamide, trifluoroacetate] | – | 0.976 nM
O=C(NCc1ccccc1OC(F)(F)F)c1ccc(CN2CCN(C(=O)C3CCOC3)CC2)s1 (stereo not shown) [Example 55] | 1.05 nM | –
COc1ccc(CNC(=O)c2ccc(CN3CCN(CC(F)(F)F)C(=O)C3)s2)c(OC(F)(F)F)c1 [Example 56] | 1.01 nM | –
COc1ncccc1C(=O)N1CCN(Cc2ccc(C(=O)NCc3ccccc3C(F)(F)F)s2)CC1 [Example 57] | 1.13 nM | –
O=C(NCc1ccc(Cl)cc1Cl)c1ccc(CN2CCN(C(=O)C3(c4ccccc4)CC3)CC2)s1 [Example 58] | 1.17 nM | –
Cc1cc(=O)oc(C)c1C(=O)N1CCN(Cc2ccc(C(=O)NCc3ccc(Cl)cc3Cl)s2)CC1 [Example 59] | 1.15 nM | –
Cc1cc(=O)oc(C)c1C(=O)N1CCN(Cc2ccc(C(=O)NCc3ccc(Cl)cc3F)s2)CC1 [Example 60, 5-[4-(2,4-Dimethyl-6-oxo-6H-pyran-3-carbonyl)-piperazin-1-ylmethyl]-thiophene-2-carboxylic acid 4-chloro-2-fluoro-benzylamide] | 1.1 nM | –
CC(O)C(=O)N1CCN(Cc2ccc(C(=O)NCc3ccc(C#N)cc3Cl)s2)CC1 (stereo not shown) [Example 61] | 1.18 nM | –
CC1(C)C(=O)NCCN1Cc1ccc(C(=O)NCc2ccccc2OC(F)(F)F)s1 [Example 62] | 1.14 nM | –
CC(C(=O)N1CCN(Cc2ccc(C(=O)NCc3ccc(Cl)cc3Cl)s2)CC1)c1ccccc1 (stereo not shown) [Example 63] | 1.21 nM | –
